The target of assay [1] is PI3Kδ (p110δ/p85α) Recombinant Human Protein (Homo sapiens (Human), UniProt O00329). Briefly: PI3Kδ scintillation proximity assay. Conditions: 2 μM ATP, 20 μM PIP2. The assay is classed as biochemical. (In general: Scintillation proximity formats need no separation of bound from free tracer.)
Assay [2] concerns Phosphorylated Ribosomal Protein S6 (RPS6) in THP-1 cells. The experiment in a line: THP-1 RPS6 ELISA assay. The assay is classed as cell-based, human. The conditions noted are these: 10 nM MCP-1, read-out: PI3Kγ_THP1_RPS6_ELISA IC50. A general note: An ELISA detects its analyte on a solid surface through an enzyme-linked reagent.
Assay [3] addresses PI3Kγ (p110γ) Recombinant Human Protein (Homo sapiens (Human), UniProt P48736). The experiment in a line: PI3K-γ scintillation proximity assay. Conditions: 2 μM ATP, 20 μM PIP2. The assay is classed as biochemical.
The mark [4] stands for this setting: Homo sapiens, THP-1, THP-1 cells.

Each structure is given as a SMILES string. Counter-ions that a name gives are not always drawn. Like-named read-outs stand apart in the source and are kept apart here.

Chain of PI3Kγ (p110γ) Recombinant Human Protein (P48736 whole entry): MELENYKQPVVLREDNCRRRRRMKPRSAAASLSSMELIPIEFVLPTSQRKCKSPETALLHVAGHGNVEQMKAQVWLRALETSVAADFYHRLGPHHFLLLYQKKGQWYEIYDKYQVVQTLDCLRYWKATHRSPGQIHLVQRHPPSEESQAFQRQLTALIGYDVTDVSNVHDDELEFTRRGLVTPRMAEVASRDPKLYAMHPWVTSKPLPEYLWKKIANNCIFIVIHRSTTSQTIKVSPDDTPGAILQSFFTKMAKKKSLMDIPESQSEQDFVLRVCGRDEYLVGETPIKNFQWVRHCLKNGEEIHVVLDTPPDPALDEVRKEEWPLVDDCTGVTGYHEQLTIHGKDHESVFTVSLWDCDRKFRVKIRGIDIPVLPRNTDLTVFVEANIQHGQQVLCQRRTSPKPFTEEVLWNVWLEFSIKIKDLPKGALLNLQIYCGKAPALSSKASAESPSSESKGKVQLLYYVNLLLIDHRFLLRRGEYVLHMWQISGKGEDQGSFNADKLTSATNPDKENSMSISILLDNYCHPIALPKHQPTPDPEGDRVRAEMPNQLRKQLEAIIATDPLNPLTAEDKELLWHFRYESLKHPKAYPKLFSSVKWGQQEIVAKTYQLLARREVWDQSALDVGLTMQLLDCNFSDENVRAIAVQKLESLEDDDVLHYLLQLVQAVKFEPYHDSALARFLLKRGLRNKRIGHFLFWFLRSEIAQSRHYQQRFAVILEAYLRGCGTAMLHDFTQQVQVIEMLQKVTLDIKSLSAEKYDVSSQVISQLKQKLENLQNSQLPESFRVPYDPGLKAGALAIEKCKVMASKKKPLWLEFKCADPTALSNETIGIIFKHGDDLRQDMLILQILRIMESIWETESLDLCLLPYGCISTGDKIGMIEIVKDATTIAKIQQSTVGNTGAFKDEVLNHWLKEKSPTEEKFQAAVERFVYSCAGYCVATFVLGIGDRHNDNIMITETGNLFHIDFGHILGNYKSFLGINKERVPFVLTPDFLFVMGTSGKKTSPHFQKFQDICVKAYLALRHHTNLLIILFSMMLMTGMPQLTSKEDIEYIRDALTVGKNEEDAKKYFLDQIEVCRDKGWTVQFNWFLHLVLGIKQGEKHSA
Chain of PI3Kδ (p110δ/p85α) Recombinant Human Protein (O00329 whole entry): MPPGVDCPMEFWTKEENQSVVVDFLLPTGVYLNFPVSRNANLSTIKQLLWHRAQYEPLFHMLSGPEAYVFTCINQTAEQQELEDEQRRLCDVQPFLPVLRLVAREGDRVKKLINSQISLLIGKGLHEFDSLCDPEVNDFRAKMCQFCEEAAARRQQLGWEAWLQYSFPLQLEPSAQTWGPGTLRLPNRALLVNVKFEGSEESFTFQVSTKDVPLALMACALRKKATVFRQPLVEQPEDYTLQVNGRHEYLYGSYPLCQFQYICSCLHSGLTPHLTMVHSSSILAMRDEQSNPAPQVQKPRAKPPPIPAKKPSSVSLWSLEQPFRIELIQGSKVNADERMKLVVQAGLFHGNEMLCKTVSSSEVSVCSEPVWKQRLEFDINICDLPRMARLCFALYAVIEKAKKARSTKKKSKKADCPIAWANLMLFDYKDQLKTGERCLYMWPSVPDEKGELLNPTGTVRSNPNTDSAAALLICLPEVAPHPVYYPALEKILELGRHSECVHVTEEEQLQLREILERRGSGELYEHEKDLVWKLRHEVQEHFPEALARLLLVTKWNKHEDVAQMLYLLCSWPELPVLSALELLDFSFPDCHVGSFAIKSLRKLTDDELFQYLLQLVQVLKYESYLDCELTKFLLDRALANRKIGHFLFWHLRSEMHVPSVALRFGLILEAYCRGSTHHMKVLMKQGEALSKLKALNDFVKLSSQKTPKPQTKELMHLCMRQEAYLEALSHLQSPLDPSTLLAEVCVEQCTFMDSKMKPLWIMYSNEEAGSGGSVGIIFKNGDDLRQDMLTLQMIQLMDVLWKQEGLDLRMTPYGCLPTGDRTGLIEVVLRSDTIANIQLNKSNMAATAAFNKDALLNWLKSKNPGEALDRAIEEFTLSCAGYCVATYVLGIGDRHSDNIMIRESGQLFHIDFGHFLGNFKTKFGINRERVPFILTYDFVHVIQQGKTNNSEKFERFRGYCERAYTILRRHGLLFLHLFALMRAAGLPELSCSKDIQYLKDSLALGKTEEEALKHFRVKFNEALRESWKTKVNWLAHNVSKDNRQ
Chain of PI3Kδ (p110δ/p85α) Recombinant Human Protein (P27986 whole entry partner): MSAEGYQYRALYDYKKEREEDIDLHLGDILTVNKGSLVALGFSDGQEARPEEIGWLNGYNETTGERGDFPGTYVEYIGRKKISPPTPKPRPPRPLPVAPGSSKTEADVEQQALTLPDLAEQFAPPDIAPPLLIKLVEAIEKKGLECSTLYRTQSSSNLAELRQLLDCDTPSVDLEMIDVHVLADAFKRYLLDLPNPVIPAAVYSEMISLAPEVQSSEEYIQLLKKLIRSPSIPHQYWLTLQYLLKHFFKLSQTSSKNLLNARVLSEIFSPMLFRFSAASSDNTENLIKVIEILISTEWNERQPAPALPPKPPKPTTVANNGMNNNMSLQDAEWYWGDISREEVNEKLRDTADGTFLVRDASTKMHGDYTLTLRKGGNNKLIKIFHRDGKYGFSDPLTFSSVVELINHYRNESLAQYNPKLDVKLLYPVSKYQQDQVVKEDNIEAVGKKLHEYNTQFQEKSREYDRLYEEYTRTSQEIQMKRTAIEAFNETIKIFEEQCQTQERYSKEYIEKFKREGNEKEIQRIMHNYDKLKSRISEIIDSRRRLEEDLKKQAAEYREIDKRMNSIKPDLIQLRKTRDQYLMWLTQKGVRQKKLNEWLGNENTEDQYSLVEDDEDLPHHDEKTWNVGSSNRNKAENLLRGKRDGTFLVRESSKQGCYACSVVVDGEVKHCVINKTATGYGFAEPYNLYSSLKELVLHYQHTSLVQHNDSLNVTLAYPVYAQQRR

In general, IC50 refers to the midpoint of a concentration-inhibition curve. `CCOc1c(C(C)NC(=O)c2c(N)nn3cccnc23)cc(Cl)c2c(Br)n(CCO)nc12` (stereo not drawn) [Example 53, 2-Amino-N-(1-(3-bromo-4-chloro-7-ethoxy-2-(2-hydroxyethyl)-2H-indazol-6-yl)ethyl)pyrazolo[1,5-a]pyrimidine-3-carboxamide]: the concentration for half-maximal inhibition (IC50) was less than 2000 nM in assay [1], more than 1000 nM in assay [2] (setting [4]) and less than 100 nM in assay [3].
Take `CCOc1c(C(C)NC(=O)c2c(N)nn3cccnc23)cc(Cl)c2c(Br)nn(CCO)c12` (stereo not drawn) [Example 54, 2-Amino-N-(1-(3-bromo-4-chloro-7-ethoxy-1-(2-hydroxyethyl)-1H-indazol-6-yl)ethyl)pyrazol[1,5-a]pyrimidine-3-carboxamide trifluoroacetate]: the IC50 was less than 100 nM in assay [1], more than 1000 nM in assay [2] (THP-1 cells) and less than 100 nM in assay [3].
Consider `CC(NC(=O)c1c(N)nn2cccnc12)c1cc(Cl)c2c(C#N)n[nH]c2c1-c1ccccc1` (stereo not drawn) [Example 55, 2-Amino-N-(1-(4-chloro-3-cyano-7-phenyl-1H-indazol-6-yl)ethyl)pyrazolo[1,5-a]pyrimidine-3-carboxamide trifluoroacetate], for which the IC50 was less than 2000 nM in assay [1], more than 1000 nM in assay [2] (setting [4]) and less than 100 nM in assay [3].
The matching figures for `CC(NC(=O)c1c(N)nn2cccnc12)c1cc(Cl)c2ccnn2c1N1CCC(C#N)CC1` (stereo not drawn) [Example 56, 2-Amino-N-(1-(4-chloro-7-(4-cyanopiperidin-1-yl)pyrazolo[1,5-a]pyridin-6-yl)ethyl)pyrazolo[1,5-a]pyrimidine-3-carboxamide trifluoroacetate]: less than 100 nM, less than 500 nM and less than 100 nM.
With `C[C@H](NC(=O)c1c(N)nn2cccnc12)c1cc(Cl)c2ccnn2c1N1CCS(=O)(=O)CC1` [Example 57, (S)-2-Amino-N-(1-(4-chloro-7-(1,1-dioxidothiomorpholino)pyrazolo[1,5-a]pyridin-6-yl)ethyl)pyrazolo[1,5-a]pyrimidine-3-carboxamide trifluoroacetate], the IC50 in assay [1] is less than 100 nM; in assay [2] (setting [4]) it was less than 500 nM; in assay [3], less than 100 nM.
For the compound `C[C@H](NC(=O)c1c(N)nn2cccnc12)c1cc(Cl)c2c(F)cnn2c1N1CCS(=O)(=O)CC1` [Example 58, (S)-2-Amino-N-(1-(4-chloro-7-(1,1-dioxidothiomorpholino)-3-fluoropyrazolo[1,5-a]pyridin-6-yl)ethyl)pyrazolo[1,5-a]pyrimidine-3-carboxamide trifluoroacetate], the half-maximal inhibitory concentration (IC50) in assay [1] was less than 100 nM; in assay [2] (setting [4]) it was less than 500 nM; in assay [3], less than 100 nM.
Consider `CC(NC(=O)c1c(N)nn2cccnc12)c1cc(Cl)c2ccnn2c1-c1cccnc1` (stereo not drawn) [Example 59, 2-Amino-N-(1-(4-chloro-7-(pyridin-3-yl)pyrazolo[1,5-a]pyridin-6-yl)ethyl)pyrazolo[1,5-a]pyrimidine-3-carboxamide trifluoroacetate], for which the IC50 in assay [1] is less than 100 nM; in assay [2] (setting [4]), less than 500 nM; in assay [3] it was less than 100 nM.
Consider `CC(NC(=O)c1c(N)nn2cccnc12)c1cc(Cl)c2c(C#N)cnn2c1N1CCS(=O)(=O)CC1` (stereo not drawn) [Example 60, 2-Amino-N-(1-(4-chloro-3-cyano-7-(1,1-dioxidothiomorpholino)pyrazolo[1,5-a]pyridin-6-yl)ethyl)pyrazolo[1,5-a]pyrimidine-3-carboxamide trifluoroacetate], for which the values for the IC50 in assay [1], in assay [2] (setting [4]) and in assay [3] were less than 500 nM, less than 500 nM and less than 100 nM, respectively.
As to `CC(NC(=O)c1c(N)nn2cccnc12)c1cc(Cl)c2c(C#N)cnn2c1N1CCC[C@H](O)C1` (stereo partly drawn) [Example 61, 2-Amino-N-(1-(4-chloro-3-cyano-7-((S)-3-hydroxypiperidin-1-yl)pyrazolo[1,5-a]pyridin-6-yl)ethyl)pyrazolo[1,5-a]pyrimidine-3-carboxamide trifluoroacetate], the values for the IC50 in assay [1], in assay [2] (setting [4]) and in assay [3] were less than 2000 nM, less than 1000 nM and less than 100 nM, respectively.

Source of the values: patent publication US10065963B2 (Incyte Corporation, priority 2015, dated 2018).
